The nature of one series: in vitro. The conditions noted are these: human.
Series [1] has as its system SARS-CoV-2 B.1.1.7 lineage. Nature of the series: microbe, parasite or virus in culture. It is filed as cell-based. The conditions noted are these: Severe acute respiratory syndrome coronavirus 2, Table C, SARS-CoV-2 B.1.1.7 in A549-dual_ACE2_TMPRSS2 cells, read-out: A549-dual_ACE2_TMPRSS2 (EC50).
Another series deals with SARS-Cov-2 3CLpro (Severe acute respiratory syndrome coronavirus 2, UniProt P0DTD1). Nature of the series: biochemical. As to conditions: Table A, read-out: SARS-Cov-2 (IC50).
For series [2], the system named is human beta-coronavirus OC43. Nature of the series: OC43 Coronavirus Assay in HeLa cells (antiviral, cytopathic effect, cell-titer-glo). Type of series: cell-based. As to conditions: Betacoronavirus 1, OC43, HeLa, Table B, OC43 coronavirus in HeLa cells, read-out: EC50.
The nature of series [3]: Cytotoxicity in HeLa cells without addition of OC43 virus (in parallel). The conditions noted are these: human, HeLa cells, without OC43 virus.

Where two headings read alike, the source gives them in different places.

As a reminder, the EC50 is the midpoint of the concentration-response curve. The IC50 is the concentration that inhibits the measured activity by half. `Cc1nnn(C(CC2CC2)C(=O)N(C)[C@@H](CC2CC2)C(=O)N2C[C@@]3(C[C@H]2C#N)Oc2cc(F)cc(F)c2NC3=O)c1C` (relative stereo) [Compound 117, (S*)—N—((S)-1-((2R,5'S)-5′-cyano-5,7-difluoro-3-oxo-3,4-dihydrospiro[benzo[b][1,4]oxazine-2,3′-pyrrolidin]-1′-yl)-3-cyclopropyl-1-oxopropan-2-yl)-3-cyclopropyl-2-(4,5-dimethyl-1H-1,2,3-triazol-1-yl)-N-methylpropanamide] returned a CC50 in “in vitro” greater than 1000 nM. For the same compound, the EC50 in series [1] (cells given as a bound) was greater than 1000 nM; in series [2] (cells given as a bound), greater than 10000 nM. For the same compound, the concentration for half-maximal inhibition (IC50) on SARS-Cov-2 3CLpro (class symbols) was 200 to 2000 nM. The same compound gave a CC50 at 6 days in series [3] greater than 10000 nM.
In the series “in vitro”, `CN(C(=O)[C@H](CC1CC1)NC(=O)C(F)(F)F)[C@@H](CC1CC1)C(=O)N1C[C@]2(C[C@H]1C#N)C(=O)NCc1ccccc12` (single isomer, unassigned) [Compound 122] returned a CC50 greater than 1000 nM. In addition, the EC50 in series [1] (class symbols) and in series [2] (class symbols) was less than 100 nM in each case. Also, the IC50 at SARS-Cov-2 3CLpro (class symbols) is less than 20 nM. The CC50 at 6 days in series [3] was greater than 10000 nM.
Turning to `CC1NC(=O)[C@]2(C[C@@H](C#N)N(C(=O)[C@H](CC3CC3)N(C)C(=O)[C@H](CC3CC3)NC(=O)C(F)(F)F)C2)Oc2ccccc21` (single isomer, unassigned) [Compound 223, (S)—N—((S)-1-((2R,5S*,5'S)-5′-cyano-5-methyl-3-oxo-4,5-dihydro-3H-spiro[benzo[f][1,4]oxazepine-2,3′-pyrrolidin]-1′-yl)-3-cyclopropyl-1-oxopropan-2-yl)-3-cyclopropyl-N-methyl-2-(2,2,2-trifluoroacetamido)propanamide], the IC50 on SARS-Cov-2 3CLpro (class symbols) is 20 to 200 nM. Moreover, the EC50 in series [2] (class symbols) lay in the range of 100 to 1000 nM. The CC50 at 6 days in series [3] is greater than 10000 nM.
Take `CN(C(=O)[C@H](CC1CC1)NC(=O)C(F)(F)F)[C@@H](CC1CC1)C(=O)N1C[C@@]2(C[C@H]1C#N)Oc1cc(F)cc(C#N)c1NC2=O` (single isomer, unassigned) [Example 35]: the CC50 in the series “in vitro” is greater than 1000 nM. In addition, the EC50 in series [1] (class symbols) was in the range of 100 to 1000 nM; in series [2] (class symbols), 1000 to 10000 nM. On SARS-Cov-2 3CLpro (class symbols), the IC50 fell in the range of 20 to 200 nM. For the same compound, the CC50 at 6 days in series [3] was greater than 10000 nM.
In the series “in vitro”, `CN(C(=O)[C@H](CC1CC1)NC(=O)C(F)(F)F)C(CC1CC1)C(=O)N1C[C@@]2(C[C@H]1C#N)Oc1cc(S(C)(=O)=O)ccc1NC2=O` (stereo in doubt) [Compound 110, (S)—N—((S)-1-((2R,5'S)-5′-cyano-7-(methylsulfonyl)-3-oxo-3,4-dihydrospiro[benzo[b][1,4]oxazine-2,3′-pyrrolidin]-1′-yl)-3-cyclopropyl-1-oxopropan-2-yl)-3-cyclopropyl-N-methyl-2-(2,2,2-trifluoroacetamido)propanamide] showed a CC50 greater than 1000 nM. The results for the EC50 in series [1] (cells given as a bound) and in series [2] (class symbols) were greater than 1000 nM and less than 100 nM, respectively. The IC50 on SARS-Cov-2 3CLpro (class symbols) was less than 20 nM. In series [3], the CC50 at 6 days is greater than 10000 nM.
As for `CC(C)CC(C(=O)N1C[C@]2(C[C@H]1C#N)C(=O)Nc1c3c(nn12)CCCC3)N(C)C(=O)[C@H](C)NC(=O)C(F)(F)F` (stereo in doubt) [Example 28, (2S)—N-[(2S)-1-[(3R,5'S)-5′-cyano-2-oxo-6,7,8,9-tetrahydro-1H-spiro[imidazo[1,2-b]indazole-3,3′-pyrrolidin]-1′-yl]-4-methyl-1-oxopentan-2-yl]-N-methyl-2-(2,2,2-trifluoroacetamido)propanamide], the CC50 in the series “in vitro” was greater than 1000 nM. The EC50 in series [1] (cells given as a bound) is greater than 1000 nM; in series [2] (class symbols), less than 100 nM. On SARS-Cov-2 3CLpro (class symbols), the IC50 is less than 20 nM. Moreover, the CC50 at 6 days in series [3] is greater than 10000 nM.
In the case of `CN(C(=O)[C@H](CC1CC1)NC(=O)C(F)(F)F)C(CC1CC1)C(=O)N1C[C@]2(Cc3ccccc3NC2=O)C[C@H]1C#N` (stereo in doubt) [Example 33, (S)—N—((S)-1-((3S,5S)-5-cyano-2′-oxo-1′,4′-dihydro-2′H-spiro[pyrrolidine-3,3′-quinolin]-1-yl)-3-cyclopropyl-1-oxopropan-2-yl)-3-cyclopropyl-N-methyl-2-(2,2,2-trifluoroacetamido)propanamide], the CC50 in the series “in vitro” is greater than 1000 nM. Further, the EC50 in series [1] (class symbols) is less than 100 nM; in series [2] (class symbols) it was 100 to 1000 nM. Moreover, on SARS-Cov-2 3CLpro (class symbols), the IC50 was less than 20 nM. Besides, the CC50 at 6 days in series [3] is greater than 10000 nM.
In turn, `COC(=O)N[C@@H](CC1CC1)C(=O)N(C)[C@@H](CC1CC1)C(=O)N1C[C@@]2(C[C@H]1C#N)Oc1cc(F)cc(F)c1NC2=O` [Compound 75] displayed a CC50 in “in vitro” greater than 1000 nM. For the same compound, the concentration for a half-maximal effect (EC50) in series [1] (class symbols) is less than 100 nM; in series [2] (cells given as a bound) it was greater than 10000 nM. Besides, the CC50 at 6 days in series [3] was greater than 10000 nM.
Turning to `CN(C(=O)[C@H](CC1CC1)NC(=O)C1(F)CC1)[C@@H](CC1CC1)C(=O)N1C[C@@]2(C[C@H]1C#N)Oc1cc(F)cc(F)c1NC2=O` [Compound 76], the CC50 in “in vitro” was greater than 1000 nM. Moreover, the 50% effective concentration (EC50) in series [1] (class symbols) and in series [2] (class symbols) was less than 100 nM in each case. Besides, the CC50 at 6 days in series [3] was greater than 10000 nM.
In turn, `CN(C(=O)[C@H](CC1CC1)NC(=O)c1ccc(F)cc1)[C@@H](CC1CC1)C(=O)N1C[C@@]2(C[C@H]1C#N)Oc1cc(F)cc(F)c1NC2=O` [Compound 77] displayed a CC50 in the series “in vitro” greater than 1000 nM. The concentration for a half-maximal effect (EC50) in series [1] (class symbols) and in series [2] (class symbols) was less than 100 nM throughout. In series [3], this compound returned a CC50 at 6 days greater than 10000 nM.
As to `N#C[C@@H]1C[C@]2(CN1C(=O)[C@H](CC1CC1)NC(=O)[C@H](CC1CC1)NC(=O)C(F)(F)F)Oc1cc(F)cc(F)c1NC2=O` [Compound 78], in “in vitro”, the CC50 was greater than 1000 nM. Further, the EC50 in series [1] (class symbols) and in series [2] (class symbols) was 100 to 1000 nM throughout. For the same compound, the CC50 at 6 days in series [3] is greater than 10000 nM.
In “in vitro”, `CN(C(=O)c1cnn(-c2ccccc2C(F)(F)F)c1)[C@@H](CC1CC1)C(=O)N1C[C@@]2(C[C@H]1C#N)Oc1cc(F)cc(F)c1NC2=O` [Compound 79] yielded a CC50 greater than 1000 nM. The EC50 in series [1] (class symbols) was 100 to 1000 nM; in series [2] (class symbols), less than 100 nM. For the same compound, the CC50 at 6 days in series [3] was greater than 10000 nM.
Regarding `CC(C)C[C@@H](C(=O)N1C[C@]2(C[C@H]1C#N)C(=O)Nc1ccccc1C2(C)O)N(C)C(=O)[C@H](C)NC(=O)C(F)(F)F` (some centres unmarked) [Compound 80], at SARS-Cov-2 3CLpro (class symbols), the IC50 is 200 to 2000 nM. The EC50 in series [2] (class symbols) was less than 100 nM. In series [3], this compound came in with a CC50 at 6 days greater than 10000 nM.
In the same order, the values of `CN(C(=O)[C@H](CC1CC1)NC(=O)C(F)(F)F)[C@@H](CC1CC1)C(=O)N1C[C@@]2(C[C@H]1C#N)Oc1ncccc1NC2=O` [Compound 91] are less than 20 nM, less than 100 nM and greater than 10000 nM.
Take `CN(C(=O)[C@H](CCCCN)NC(=O)C(F)(F)F)[C@@H](CC1CC1)C(=O)N1C[C@@]2(C[C@H]1C#N)Oc1cccnc1NC2=O` [Compound 221]: the IC50 on SARS-Cov-2 3CLpro (class symbols) was less than 20 nM. Besides, in series [2] (cells given as a bound), the EC50 was greater than 10000 nM. For the same compound, in series [3], the CC50 at 6 days was greater than 10000 nM.
`C[C@H](Nc1ncnc2ccccc12)C(=O)N(C)[C@@H](CC1CC1)C(=O)N1C[C@@]2(C[C@H]1C#N)Oc1cccnc1NC2=O` [Compound 230]: the IC50 on SARS-Cov-2 3CLpro (class symbols) was less than 20 nM. Besides, in series [2] (class symbols), the EC50 lay in the range of 100 to 1000 nM. The CC50 at 6 days in series [3] was greater than 10000 nM.
With `CN(C(=O)c1ccc(=O)[nH]n1)[C@@H](CC1CC1)C(=O)N1C[C@@]2(C[C@H]1C#N)Oc1cccnc1NC2=O` [Compound 231], the IC50 on SARS-Cov-2 3CLpro (cells given as a bound) was greater than 2000 nM. The EC50 in series [2] (cells given as a bound) is greater than 10000 nM. For the same compound, the CC50 at 6 days in series [3] is greater than 10000 nM.
Consider `Cc1ccc(C(=O)N(C)[C@@H](CC2CC2)C(=O)N2C[C@@]3(C[C@H]2C#N)Oc2cccnc2NC3=O)[nH]c1=O` [Compound 232], for which, at SARS-Cov-2 3CLpro (class symbols), the IC50 was 200 to 2000 nM. The 50% effective concentration (EC50) in series [2] (cells given as a bound) was greater than 10000 nM. In series [3], the CC50 at 6 days was greater than 10000 nM.

For the origin of these results see patent US20240199647A1, “ANTI-VIRAL COMPOUNDS” (Aligos Therapeutics, Inc., priority 2022, published 2024).
